Measurements from US6344184B1, “Oral composition for inhibiting oral malodor” (priority 1999, dated 2002).
Where two headings read alike, the source gives them in different places.

Tested on: VSCs (hydrogen sulfide, methyl mercaptan) formed by bacteria in freshly collected human saliva
Assay: In vitro VSC inhibition in incubated human saliva, gas chromatography of gas phase
Assay type: cell-based
Procedure: In vitro experiments were performed to test the VSC-inhibiting potential of different combinations of zinc acetate and cationic antibacterial agents.
To a 1 ml sample of freshly collected human saliva in a test tube was added 10 microliter of the solutions (mouthrinses) described below. The test tubes were closed with a stopper and incubated overnight at 37° C. A control tube which contained only saliva served as a control. It is well known that large amounts of VSCs are formed in a test tube during the latter conditions, the bacteria breaking down the salivary proteins and forming VSCs from cysteine and methionine. The VSCs in the gas phase above the incubated saliva, were measured by gas chromatography in a Shimadzu 14B instrument, and hydrogen sulfide, methyl mercaptan and di-methyl sulfide were used as standard.
The solutions to be tested were: 0.3% zinc acetate, 0.025% chlorhexidine, 0.025% cetylpyridinium chloride and 0.025% benzalkonium chlorides. Subsequently the zinc acetate was combined with each of the individual antibacterial agents. All the experiments described In this paragraph were performed on the same day under Identical conditions. The concentrations chosen were based on experience from pilot experiments with different concentrations of the zinc and antibacterial agents.
An examination was conducted to investigate whether the effect of the combinations of zinc acetate and the individual antibacterial agents represented a synergistic effect. This was performed according to the method of Behrenbaum (J.lnf. Dis. 137:122-130, 1978). The fractional inhibitory concentrations (the FIC index) was calculated based on the amounts (AUC) of hydrogen sulfide and methyl mercaptan formed under different conditions. […] The FIC index was calculated from the following formula: (A+B)/A+(A+B)/B, where A+B represents the combinations of zinc and antibacterial agent, whereas A and B alone represent the individual agents.
If the FIC Index is below 1 (<1) a synergistic effect is established. If the index is like 1 (=1) an additional effect between A and B is seen, whereas an index above 1 (>1) indicates an antagonistic effect.

[1] = 10 microliter solution added to 1 ml human saliva, incubated overnight at 37° C, low AUC = strong inhibitor, control >27 mill
[2] = 10 microliter solution added to 1 ml human saliva, incubated overnight at 37° C, low AUC = strong inhibitor, control >41 mill

Molecule | HS (hydrogen sulfide) AUC value (amount of VSC) [1] | MM (methyl mercaptan) AUC value (amount of VSC) [2] | Effect on HS and MM in saliva, in words (incubated human saliva, versus control) | HS (hydrogen sulfide) AUC value (amount of VSC) [mill] | MM (methyl mercaptan) AUC value (amount of VSC) [mill] | Effect on HS and MM in saliva, in words
CC(=O)O.CC(=O)O.NC(=N\CCCCCC/N=C(N)/N=C(\N)Nc1ccc(Cl)cc1)/N=C(\N)Nc1ccc(Cl)cc1 [CHX 0.025%, chlorhexidine acetate] | 443 000 AUC | 355 000 AUC | clear effect on both HS and MM in the same order of magnitude as zinc acetate |  |  | 
CCCCCCCCCCCCCCCC[n+]1ccccc1 [CPC 0.025%, cethylpyridinium chloride] |  |  |  | 5.2 | 6.89 | 
CC(=O)[O-].CC(=O)[O-].[Zn+2] [Zinc Ac. 0.3%, zinc acetate] | 150 000 AUC | 4 mill |  |  |  | reduced the amount of HS much more than the amount of MM
benzalkonium chloride [Benzalk 0.025%] | 1.4 mill | 1.7 mill |  |  |  | 
